Reference: US20080194970A1 (priority 2005, published 2008)

How the values were obtained:
[1] = cited from earlier work
normal prostate cells = test: topical labeling of prostate cells during surgery, imaged by fibered confocal fluorescence microscopy; type: in vivo; conditions: rat during a surgical procedure
Excerpt: The marker bar indicates 30 microns.
The imaging equipment selected for use in the present invention was a Cell-vizio (purchased from Mauna Kea Technologies), an ultra-high resolution molecular imaging system that employs fibered confocal fluorescence microscopy technology. This system was specifically designed to visualize cellular structures and quantify molecular events in vivo and is composed of an autonomous Laser Scanning Unit, a range of fibered objectives made of tens of thousands of optical fibers, and a dedicated image processing and analysis software package. The system is capable of capturing images at a rate of 12 frames per second in living anesthetized animals. These images have a lateral resolution of the order of a micron, an axial resolution of 15 to 20 μm, a field of view up to 600 μm×500 μm, and can be obtained at depths up to 80 μm. The fibered probes have diameters ranging from 300 μm to 1.8 mm, allowing for access to the narrow spaces posterior to the prostate where the cavernous nerves are located.

Substance | water solubility [1] | photostability ([1]; compared with fluorescein) | in vivo labeling of normal prostate cells (FIG. 3) (normal prostate cells)
Alexa Fluor 488 | water solubility, with no organic co-solvents required in labeling reactions | much greater photostability than fluorescein | 
acriflavine |  |  | normal prostate cells labeled
